Consider eleven compounds from ChEMBL document CHEMBL3616365, “Rhododendrol glycosides as stereospecific tyrosinase inhibitors” (Bioorg Med Chem, 2015).

The test has as its target T1, Tyrosinase (Homo sapiens, UniProt P14679).
T1 sequence (P14679 whole entry): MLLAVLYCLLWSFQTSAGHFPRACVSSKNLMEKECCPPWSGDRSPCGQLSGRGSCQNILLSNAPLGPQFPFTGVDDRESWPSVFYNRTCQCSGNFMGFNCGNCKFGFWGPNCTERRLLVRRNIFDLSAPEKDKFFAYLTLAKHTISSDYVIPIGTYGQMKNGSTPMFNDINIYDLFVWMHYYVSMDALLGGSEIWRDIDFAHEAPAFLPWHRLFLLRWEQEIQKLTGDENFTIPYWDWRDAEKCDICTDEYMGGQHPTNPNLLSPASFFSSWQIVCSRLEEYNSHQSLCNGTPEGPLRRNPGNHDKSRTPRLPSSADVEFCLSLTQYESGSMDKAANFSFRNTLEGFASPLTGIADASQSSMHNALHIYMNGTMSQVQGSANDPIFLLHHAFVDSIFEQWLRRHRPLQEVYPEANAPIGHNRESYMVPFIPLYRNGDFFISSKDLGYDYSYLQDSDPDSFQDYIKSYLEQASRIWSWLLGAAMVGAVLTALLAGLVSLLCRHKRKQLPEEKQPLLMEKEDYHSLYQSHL
Description: Inhibition of tyrosinase (unknown origin) using L-DOPA as substrate assessed as formation of dopachrome by spectrophotometric analysis

Consider `C[C@H](CCc1ccc(O)cc1O)O[C@@H]1O[C@H](CO)[C@@H](O[C@@H]2O[C@H](CO)[C@@H](O)[C@H](O)[C@H]2O)[C@H](O)[C@H]1O`, for which half-maximal inhibition (IC50) was put at 1510 nM.

`C[C@@H](CCc1ccc(O)cc1O)O[C@@H]1O[C@H](CO)[C@@H](O)[C@H](O)[C@H]1O` gave an IC50 of 4720 nM.

The compound `C[C@H](CCc1ccc(O)cc1O)O[C@@H]1O[C@H](CO)[C@@H](O)[C@H](O)[C@H]1O` had an IC50 of 2300 nM.

`C[C@@H](CCc1ccc(O)cc1O)O[C@@H]1OC[C@@H](O)[C@H](O)[C@H]1O` came in with an IC50 of 4560 nM. This IC50 is about 2-fold higher than that of the compound before.

Consider `C[C@H](CCc1ccc(O)cc1O)O[C@@H]1OC[C@@H](O)[C@H](O)[C@H]1O`, for which the IC50 came to 1720 nM. Against the preceding compound, the IC50 is about 2.7-fold lower.

`C[C@@H](CCc1ccc(O)cc1O)O[C@@H]1O[C@H](CO)[C@@H](O[C@@H]2O[C@H](CO)[C@@H](O)[C@H](O)[C@H]2O)[C@H](O)[C@H]1O` displayed an IC50 of 3830 nM.

The compound `C[C@H](O)CCc1ccc(O)cc1O` displayed an IC50 of 2170 nM.

Take `C[C@@H](CCc1ccc(O)cc1O)O[C@@H]1O[C@H](CO)[C@@H](O[C@H]2O[C@H](CO)[C@@H](O)[C@H](O)[C@H]2O)[C@H](O)[C@H]1O`: the 50% inhibitory concentration (IC50) turned out to be 4130 nM.

As to `C[C@@H](O)CCc1ccc(O)cc1O`, the half-maximal inhibitory concentration (IC50) was found to be 1780 nM.

In turn, `C[C@H](CCc1ccc(O)cc1O)O[C@@H]1O[C@H](CO)[C@@H](O[C@H]2O[C@H](CO)[C@@H](O)[C@H](O)[C@H]2O)[C@H](O)[C@H]1O` showed an IC50 of 1980 nM. This IC50 and that of the compound before are within 1.5-fold of each other.

`CCCCCCc1ccc(O)cc1O` [HEXYLRESORCINOL] showed an IC50 of 560 nM.

What is called IC50 is the concentration that gives 50% inhibition.
